{"source": "patent US6689803B2", "about": "“Compositions and methods for treating surgical adhesions” (Angiotech Pharmaceuticals, Inc., priority 1996, dated 2004)", "key": {"neutrophils": {"tested_on": "neutrophils", "test": "Superoxide anion generation by neutrophils", "format": "cell-based, human", "details": "28 μM", "description": "All experiments that studied neutrophil responses to crystals or zymosan in the presence of paclitaxel were performed using plasma opsonized CPPD or zymosan. Opsonization of crystals or zymosan was done with 50% heparinized plasma at a concentration of 75 mg of CPPD or 12 mg of zymosan per ml of 50% plasma Crystals or zymosan were incubated with plasma for 30 minutes at 37° C. and then washed in excess HBSS.\nNeutrophil viability and purity was always greater than 90%.\nSuperoxide anion concentrations were measured using the superoxide dismutase inhibitable reduction of cytochrome C assay. Briefly, 25 mg of crystals or 0.5 mg of zymosan was placed in a 1.5 ml capped Eppendorf tube and warmed to 37° C. 0.5 ml of cells at 37° C. were added together with ferricytochrome C (final concentration 1.2 mg/ml) and the cells were activated by shaking the capped tubes. At appropriate times tubes were centrifuged at 10,000 g for 10 seconds and the supernatant collected for assay be measuring the absorbance of 550 nm. Control tubes were set up under the same conditions with the inclusion of superoxide dismutase at 600 units per ml."}, "synoviocytes [1]": {"tested_on": "synoviocytes", "test": "3H-thymidine incorporation into synoviocytes", "format": "cell-based", "details": "6 or 24 hours", "protocol": "At these times, 1×10^−6 cpm of ^3H-thymidine was added to the cell culture and incubated for 2 hours at 37° C. The cells were placed through a cell harvester, washed through a filter, the filters were cut, and the amount of radiation contained in the filter sections determined. Once the amount of thymidine incorporated into the cells was ascertained, it was used to determine the rate of cell proliferation. This experiment was repeated three times and the data collated."}, "[2]": {"tested_on": "fibrous astrocytes (GFAP)", "test": "GFAP and astrocytes in brain, transgenic mouse model of demyelinating disease", "format": "in vivo", "details": "brain sections, transgenic mice", "quoted_text": "Three days following the tenth injection, the experimental study was terminated and the brain tissues processed for histological analysis. For light microscopy, tissues were fixed in formalin and embedded in paraffin. Sections were stained with anti-GFAP antibody (DACO), washed and then reacted with secondary antibody conjugated with HPP. The sections were stained for HPP and counter-stained with haematoxylin."}, "synoviocytes [3]": {"tested_on": "synoviocytes", "test": "Proliferation assay (MTT)", "format": "cell-based", "details": "24-hour exposure", "description": "On day one, 5-10×10^4 synoviocytes were plated per well (96-well plate). Column #1 was kept free of cells (blank). On day 2, the plate was flicked to discard the medium and 200 μl of medium containing various concentrations of drug was added. […] There was no drug added to columns #1 and #2 (blank and untreated control, respectively). The medium containing the drug was discarded and 200 μl of fresh complete medium was added. The cells were then left to grow for an additional 3 to 4 days. On day five, 20 μl of dimethylthiazol diphenyltetrazolium bromide salt (MTT) (5 mg/ml PBS) was added and allowed to incubate for 4 hours at 37° C. The medium was decanted and 200 μl of DMSO was added.\nThe data were expressed as the % of survival which was obtained by dividing the number of cells remaining after treatment by the number of cells in the untreated control column #2 (the number of cells was obtained from a standard done prior to the assay)."}, "collagenase (MMP-1) mRNA": {"tested_on": "collagenase (MMP-1) mRNA", "test": "IL-1 induced collagenase mRNA expression in chondrocytes (Northern blot)", "format": "cell-based, calf", "description": "Total RNA was isolated, and the MMP-1 mRNA levels were determined by Northern blot analysis. The blots were subsequently stripped and reprobed with ^32P-radiolabeled rat GAPDH cDNA, which was used as a housekeeping gene. The results shown are representative of four independent experiments. Quantitation of collagenase-1 and stromelysin-expression mRNA levels. The MMP-1 and MMP-3 expression levels were normalized with GAPDH.\nPrimary chondrocyte cultures were freshly isolated from calf cartilage. The cells were plated at 2.5×10^6 per ml in 100×20 mm culture dishes and incubated in Ham's F12 medium containing 5% FBS overnight at 37° C. […] IL-1 (20 ng/ml) was then added to each plate and the plates incubated for an additional 18 hours. Total RNA was isolated by the acidified guanidine isothiocyanate method and subjected to electrophoresis on a denatured gel. Denatured RNA samples (15 μg) were analyzed by gel electrophoresis in a 1% denatured gel, transferred to a nylon membrane and hydridized with the ^32P-labeled collagenase cDNA probe. ^32P-labeled glyceraldehyde phosphate […] (GAPDH) cDNA as an internal standard to ensure roughly equal loading. The exposed films were scanned and quantitatively analyzed with ImageQuant."}, "[4]": {"tested_on": "MDAY-D2 tumors on the CAM", "test": "Tumor angiogenesis: MDAY-D2 tumors on the CAM", "format": "in vivo, chick", "details": "20% paclitaxel-loaded thermopaste", "description": "Fertilized domestic chick embryos are incubated for 4 days prior to having their shells removed. The egg contents are emptied by removing the shell located around the airspace, severing the interior shell membrane, perforating the opposite end of the shell and allowing the egg contents to gently slide out from the blunted end. The contents are emptied into round-bottom sterilized glass bowls, covered with petri dish covers and incubated at 90% relative humidity and 3% carbon dioxide.\nMDAY-D2 cells (a murine lymphoid tumor) are injected into mice and allowed to grow into tumors weighing 0.5-1.0 g. The mice are sacrificed, the tumor sites wiped with alcohol, excised, placed in sterile tissue culture media, and diced into 1 mm pieces under a laminar flow hood. Prior to placing the dissected tumors onto the […] chick embryos, CAM surfaces are gently scraped with a 30 gauge needle to ensure tumor implantation. The tumors are then placed on the CAMs after 8 days of incubation (4 days after deshelling), and allowed to grow on the CAM for four days to establish a vascular supply. Four embryos are prepared utilizing this method, each embryo receiving 3 tumors. On day 12, each of the 3 tumors on the embyros received either 20% paclitaxel-loaded thermopaste, unloaded thermopaste, or no treatment. The treatments were continued for two days before the results were recorded.\nThe explanted MDAY-D2 tumors secrete angiogenic factors which induce the ingrowth of capillaries (derived from the CAM) into the tumor mass and allow it to continue to grow in size. Since all the vessels of the tumor are derived from the CAM, while all the tumor cells are derived from the explant, it is possible to assess the effect of therapeutic interventions on these two processes independently. This assay has been used to determine the effectiveness of paclitaxel-loaded thermopaste on: (a) inhibiting the vascularization of the tumor and (b) inhibiting the growth of the tumor cells themselves."}, "[5]": {"test": "Solubility / complexation of paclitaxel with cyclodextrins", "format": "physicochemical", "description": "The mobile phase was composed of a mixture of acetonitrile, methanol and water (58:5:37) at a flow rate of 1.0 ml/minute."}, "[6]": {"test": "Stability of paclitaxel in cyclodextrin solutions", "format": "physicochemical", "from_the_text": "The solutions containing 20% HPβCD or HPγCD had pH values of 3.9 and 5.2, respectively."}, "[7]": {"tested_on": "chick chorioallantoic membrane (CAM) vasculature", "details": "for CAM vasculature: 2-day exposure"}}, "note": "Like-named read-outs stand apart in the source and are kept apart here.", "data": [{"compound": "CC(=O)O[C@H]1C(=O)[C@@]2(C)[C@H]([C@H](OC(=O)c3ccccc3)[C@]3(O)C[C@H](OC(=O)[C@H](O)[C@@H](NC(=O)c4ccccc4)c4ccccc4)C(C)=C1C3(C)C)[C@]1(OC(C)=O)CO[C@@H]1C[C@@H]2O", "note": "[paclitaxel]", "values": [{"measurement": "inhibition of superoxide anion production", "setting": "neutrophils; opsonized zymosan", "result": "less dramatic than the inhibition of CPPD activation but was significant at all times"}, {"measurement": "superoxide anion production", "setting": "neutrophils; plasma opsonized CPPD crystals", "result": "decrease in the amount of superoxide generated at all times"}, {"measurement": "inhibits incorporation of 3H-thymidine at concentrations as low as", "setting": "synoviocytes [1]", "result": "10^−8 M"}, {"measurement": "number of fibrous astrocytes", "setting": "[2]", "result": "decreased significantly"}, {"measurement": "IC50", "setting": "synoviocytes [3]", "result": "~0.03", "unit": "µM"}, {"measurement": "concentration inhibiting collagenase expression in vitro", "setting": "collagenase (MMP-1) mRNA", "result": "10^−6 M"}, {"measurement": "collagenase mRNA levels", "setting": "collagenase (MMP-1) mRNA; 10^−5 M, pretreatment 24 hours, IL-1", "result": "complete inhibition"}, {"measurement": "blood vessels in the immediate periphery of the tumor", "setting": "[4]; two days", "result": 14}, {"measurement": "small capillaries in the tumor mass", "setting": "[4]; two days", "result": "3-4"}, {"measurement": "tumor vascularity", "setting": "[4]; all 4 embryos", "result": "suppressing tumor vascularity"}, {"measurement": "solubility", "setting": "[5]; 50% HPβ-CD in water, aqueous with cosolvent or surfactant or cyclodextrin, thermodynamic from solid, 50% solution of HPβ-CD in water, 37° C.", "result": 3200, "unit": "µg/mL"}, {"measurement": "increase over the solubility of paclitaxel in water", "setting": "[5]; 50% solution of HPβ-CD in water, 37° C.", "result": "~2000", "unit": "fold"}, {"measurement": "apparent stability constant", "setting": "[5]; HPβ-CD in the presence of 50% ethanol", "result": 26.57, "unit": "M⁻¹"}, {"measurement": "stability constant, first order complex", "setting": "[5]; HPβ-CD, 37° C.", "result": 7.2, "unit": "M⁻¹"}, {"measurement": "stability constant lower than in the absence of ethanol", "setting": "[5]; HPβ-CD, 50% ethanol", "result": "about 300 times"}, {"measurement": "stability constant, first order complex", "setting": "[5]; HPγ-CD, 37° C.", "result": 5.8, "unit": "M⁻¹"}, {"measurement": "stability constant, first order complex", "setting": "[5]; γ-CD, 37° C.", "result": 3.1, "unit": "M⁻¹"}, {"measurement": "degradation rate constant k", "setting": "[6]; 1 μg/ml paclitaxel, 1% HPβ-CD, 55° C.", "result": 0.00338, "unit": "h⁻¹"}, {"measurement": "degradation rate constant", "setting": "[6]; 10% HPβ-CD (FIG. 42: 20 μg/ml, 37° C., pH 3.7)", "result": 0.00178, "unit": "h⁻¹"}, {"measurement": "degradation rate constant", "setting": "[6]; 10% HPγ-CD (FIG. 42: 20 μg/ml, 37° C., pH 4.9)", "result": 0.00096, "unit": "h⁻¹"}, {"measurement": "CAM vasculature", "setting": "[7]; 5% paclitaxel-loaded PCL microspheres, 1 mg", "result": "marked vascular regression and zones which were devoid of a capillary network"}, {"measurement": "diameter of avascular areas", "setting": "[7]; 48 hour exposure to 10 μg paclitaxel per 10 ml of methylcellulose", "result": "approximately 6 mm"}, {"measurement": "avascular zones did not revascularize for", "setting": "[7]; after application", "result": "at least 7 days"}, {"measurement": "inhibition of angiogenesis occurs as early as", "setting": "[7]; after application", "result": 9, "unit": "h"}, {"measurement": "avascular gradient scale", "setting": "[7]; maximal avascular zone within 48 hours depending on concentration, methylcellulose disk", "result": 3}, {"measurement": "Inhibition/n", "setting": "[7]; micellar solution (10 ul), 10%", "result": "too toxic"}, {"measurement": "CAM vasculature", "setting": "[7]; paclitaxel-gelatin-PCL paste, 1 mg pieces", "result": "consistently showed vascular regression and zones which lacked a capillary network"}, {"measurement": "maximal avascular zone diameter", "setting": "[7]; within 48 hours depending on concentration, methylcellulose disk", "result": 6, "unit": "mm"}]}]}
